Patent publication US8173645B2 (Takeda San Diego, Inc., priority 2007, dated 2012)
pEC50: −log10 of the molar value.

Biological target: T1, glucokinase (GK), residues 12-465 of the human enzyme (Homo sapiens, UniProt P35557)
T1 construct: I.D. No. 1 corresponds to residues 12-465 of glucokinase; made in house; host or cells: E. coli DH10b-Tlr
T1 sequence (P35557 with tags, fused parts or gaps isoform P35557-2): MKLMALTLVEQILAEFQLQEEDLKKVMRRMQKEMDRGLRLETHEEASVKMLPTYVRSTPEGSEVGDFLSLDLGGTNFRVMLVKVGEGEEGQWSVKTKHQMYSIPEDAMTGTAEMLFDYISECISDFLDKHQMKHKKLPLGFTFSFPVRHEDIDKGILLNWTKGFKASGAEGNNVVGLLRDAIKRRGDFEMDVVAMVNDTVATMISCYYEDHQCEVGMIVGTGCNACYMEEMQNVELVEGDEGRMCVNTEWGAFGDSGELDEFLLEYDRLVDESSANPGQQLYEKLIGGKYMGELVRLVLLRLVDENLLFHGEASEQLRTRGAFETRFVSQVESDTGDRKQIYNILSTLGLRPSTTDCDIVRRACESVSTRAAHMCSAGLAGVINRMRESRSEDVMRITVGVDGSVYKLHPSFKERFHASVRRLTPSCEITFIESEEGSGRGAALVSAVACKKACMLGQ
Assay: Enzymatic glucokinase activity assay (KinaseGlo luminescence, ATP consumption)
Format: biochemical
Conditions: 5 μM ATP, 5 mM Glucose; for pEC50: GK activation, Kact = concentration giving 50% of the maximal increase in GK activity, read-out: pKact; for Emax: calculated maximal gain in GK enzyme activity at a saturating concentration of the compound, read-out: % ACTmax
Summary of the method: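 Activation measured as ATP consumption: residual ATP detected by KinaseGlo luminescence after 60 min at room temperature with 5 μM ATP and 5 mM glucose (Hepes pH 7.2, MgCl2, Brij35, DTT, 2% DMSO). Enzyme was recombinant FLAG-tagged protein from E. coli. Eleven-point twofold series were fitted nonlinearly for pKact and % ACTmax.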

Structure (SMILES) | pEC50 | Emax [%]
O=C(Nc1nccs1)[C@H](CC1CCCCC1)N1CCN(S(=O)(=O)c2cc3ccccc3s2)CC1=O [Example 104, (S)-2-(4-(benzo[b]thiophen-2-ylsulfonyl)-2-oxopiperazin-1-yl)-3-cyclohexyl-N-(thiazol-2-yl)propanamide] | ≥ 6.20 | 74.1 to 97
COc1ccc(S(=O)(=O)N2CCN([C@@H](CC3CCCCC3)C(=O)Nc3nccs3)C(=O)C2)cc1OC [Example 88, (S)-3-cyclohexyl-2-(4-(3,4-dimethoxyphenylsulfonyl)-2-oxopiperazin-1-yl)-N-(thiazol-2-yl)propanamide] | ≤ 5.50 | 97.1 to 107
O=C(Nc1nccs1)[C@H](CC1CCCCC1)N1CCN(C(=S)NC2CCCCC2)CC1=O [Example 114, (S)-3-cyclohexyl-2-(4-(cyclohexylcarbamothioyl)-2-oxopiperazin-1-yl)-N-(thiazol-2-yl)propanamide] | 5.60 to 5.80 | 97.1 to 107
O=C(Nc1ncc(F)s1)[C@H](CC1CCOCC1)N1CCN(S(=O)(=O)C2CC2)CC1=O [Example 21, (S)-2-(4-(cyclopropylsulfonyl)-2-oxopiperazin-1-yl)-N-(5-fluorothiazol-2-yl)-3-(tetrahydro-2H-pyran-4-yl)propanamide] | 5.60 to 5.80 | 108 to 119
O=C(Nc1nccs1)[C@H](CC1CCCCC1)N1CCN(S(=O)(=O)c2ccc(F)c(F)c2)CC1=O [Example 103, (S)-3-cyclohexyl-2-(4-(3,4-difluorophenylsulfonyl)-2-oxopiperazin-1-yl)-N-(thiazol-2-yl)propanamide] | ≥ 6.20 | 108 to 119
O=C(O)c1ccc(S(=O)(=O)N2CCN([C@@H](CC3CCCCC3)C(=O)Nc3nccs3)C(=O)C2)cc1 [Example 91, (S)-4-(4-(3-cyclohexyl-1-oxo-1-(thiazol-2-ylamino)propan-2-yl)-3-oxopiperazin-1-ylsulfonyl)benzoic acid] | ≤ 5.50 | ≤ 74
Cc1n[nH]c(C)c1S(=O)(=O)N1CCN([C@@H](CC2CCCCC2)C(=O)Nc2nccs2)C(=O)C1 [Example 111, (S)-3-cyclohexyl-2-(4-(3,5-dimethyl-1H-pyrazol-4-ylsulfonyl)-2-oxopiperazin-1-yl)-N-(thiazol-2-yl)propanamide] | ≤ 5.50 | ≥ 119
O=C(Nc1nccs1)[C@H](CC1CCCCC1)N1CCN(C(=S)NCc2cccs2)CC1=O [Example 123, (S)-3-cyclohexyl-2-(2-oxo-4-(thiophen-2-ylmethylcarbamothioyl)piperazin-1-yl)-N-(thiazol-2-yl)propanamide] | 5.60 to 5.80 | 108 to 119
O=C(Nc1ncc(Cl)s1)[C@H](CC1CCOCC1)N1CCN(S(=O)(=O)C2CCCC2)CC1=O [Example 28, (S)-N-(5-chlorothiazol-2-yl)-2-(4-(cyclopentylsulfonyl)-2-oxopiperazin-1-yl)-3-(tetrahydro-2H-pyran-4-yl)propanamide] | ≥ 6.20 | ≥ 119
O=C(Nc1nccs1)[C@H](CC1CCCCC1)N1CCN(C(=O)Nc2cccc3ccccc23)CC1=O [Example 77, (S)-4-(3-cyclohexyl-1-oxo-1-(thiazol-2-ylamino)propan-2-yl)-N-(naphthalen-1-yl)-3-oxopiperazine-1-carboxamide] | ≤ 5.50 | 74.1 to 97
O=C(Nc1nccs1)[C@H](CC1CCCCC1)N1CCN(S(=O)(=O)C2CC2)CC1=O [Example 96, (S)-3-cyclohexyl-2-(4-(cyclopropylsulfonyl)-2-oxopiperazin-1-yl)-N-(thiazol-2-yl)propanamide] | 5.90 to 6.10 | 108 to 119

Further lines, results first:

pEC50 | Emax [%] | Structure (SMILES)
≤ 5.50 | 74.1 to 97 | O=C(Nc1nccs1)[C@H](CC1CCCCC1)N1CCN(C(=O)Nc2ccc3c(c2)OCCO3)CC1=O [Example 145, (S)-4-(3-cyclohexyl-1-oxo-1-(thiazol-2-ylamino)propan-2-yl)-N-(2,3-dihydrobenzo[b][1,4]dioxin-6-yl)-3-oxopiperazine-1-carboxamide]
≤ 5.50 | ≤ 74 | O=C(Nc1nccs1)[C@H](CC1CCCCC1)N1CCN(C(=O)Nc2ccc(Cl)c(Cl)c2)CC1=O [Example 131, (S)-4-(3-cyclohexyl-1-oxo-1-(thiazol-2-ylamino)propan-2-yl)-N-(3,4-dichlorophenyl)-3-oxopiperazine-1-carboxamide]
5.60 to 5.80 | 74.1 to 97 | O=C(Nc1nccs1)[C@H](CC1CCCCC1)N1CCN(S(=O)(=O)Cc2cc(Cl)cc(Cl)c2)CC1=O [Example 212, (S)-3-cyclohexyl-2-(4-(3,5-dichlorobenzylsulfonyl)-2-oxopiperazin-1-yl)-N-(thiazol-2-yl)propanamide]
5.90 to 6.10 | 74.1 to 97 | O=C(Nc1nccs1)[C@H](CC1CCCCC1)N1CCN(S(=O)(=O)c2cc(F)c(Cl)cc2F)CC1=O [Example 190, (S)-2-(4-(4-chloro-2,5-difluorophenylsulfonyl)-2-oxopiperazin-1-yl)-3-cyclohexyl-N-(thiazol-2-yl)propanamide]
5.60 to 5.80 | ≤ 74 | COC(=O)c1cc(C)c(S(=O)(=O)N2CCN([C@@H](CC3CCCCC3)C(=O)Nc3nccs3)C(=O)C2)s1 [Example 157, (S)-methyl 5-(4-(3-cyclohexyl-1-oxo-1-(thiazol-2-ylamino)propan-2-yl)-3-oxopiperazin-1-ylsulfonyl)-4-methylthiophene-2-carboxylate]
5.60 to 5.80 | ≤ 74 | Cc1cc(S(=O)(=O)N2CCN([C@@H](CC3CCCCC3)C(=O)Nc3nccs3)C(=O)C2)c(Cl)cc1Cl [Example 221, (S)-3-cyclohexyl-2-(4-(2,4-dichloro-5-methylphenylsulfonyl)-2-oxopiperazin-1-yl)-N-(thiazol-2-yl)propanamide]
5.60 to 5.80 | 97.1 to 107 | CC(=O)c1cccc(S(=O)(=O)N2CCN([C@@H](CC3CCCCC3)C(=O)Nc3nccs3)C(=O)C2)c1 [Example 196, (S)-2-(4-(3-acetylphenylsulfonyl)-2-oxopiperazin-1-yl)-3-cyclohexyl-N-(thiazol-2-yl)propanamide]
5.60 to 5.80 | ≤ 74 | O=C(Nc1nccs1)[C@H](CC1CCCCC1)N1CCN(S(=O)(=O)c2cc(Cl)c(Cl)cc2Cl)CC1=O [Example 219, (S)-3-cyclohexyl-2-(2-oxo-4-(2,4,5-trichlorophenylsulfonyl)piperazin-1-yl)-N-(thiazol-2-yl)propanamide]
5.60 to 5.80 | 74.1 to 97 | O=C(Nc1nccs1)[C@H](CC1CCCCC1)N1CCN(S(=O)(=O)c2ccc(-n3cccn3)cc2)CC1=O [Example 215, (S)-2-(4-(4-(1H-pyrazol-1-yl)phenylsulfonyl)-2-oxopiperazin-1-yl)-3-cyclohexyl-N-(thiazol-2-yl)propanamide]
5.90 to 6.10 | 97.1 to 107 | N#Cc1ccc(NC(=S)N2CCN([C@@H](CC3CCCCC3)C(=O)Nc3nccs3)C(=O)C2)cc1 [Example 126, (S)-2-(4-(4-cyanophenylcarbamothioyl)-2-oxopiperazin-1-yl)-3-cyclohexyl-N-(thiazol-2-yl)propanamide]
